Where a name gives a salt, the structure may show the parent alone.
Columns and labels:
[1] = test system: seasonal allergic rhinitis nasal symptoms (rhinorrhea, nasal itching, sneezing); test: Proof of concept clinical study: Total Nasal Symptom Score (TNSS); format: in vivo, human; conditions: TNSS > 4.7 subgroup
Experimental: An open-label, placebo-controlled parallel-group comparison study was conducted. The protocol used was a 1 week run-in period, with daily placebo (PLC) for all groups, and a second 2 week period for treatment. Study participants were randomized to receive at bedtime (10 pm) during the treatment period, one of the following: PLC only; Immediate Release LOR 10 mg, or Immediate Release CHL 4 mg/Immediate Release LOR 10 mg. Commercially available IR tablets of CHL and LOR were packaged into capsules and used in this study. Participants filled out patient diaries in the morning (8 am) and evening (10 pm, prior to dosing). Reflective and Instantaneous TNSSs were recorded daily. Pittsburgh Sleep Quality Index (PSQI) was scored at the end of the study.
Each symptom (rhinorrhea, nasal itching, sneezing) was scored on the following scale (Max Score=9):
0=absent symptoms (no sign/symptom evident);
1=mild symptoms (signs or symptoms clearly present but with minimal awareness, and easily tolerated);
2=moderate symptoms (definite awareness of signs or symptoms that are bothersome but tolerable); or
3=Severe symptoms (signs or symptoms that are hard to tolerate and cause interference with activities of daily living and/or sleeping).
At each time point (at 8 AM and 10 PM), symptoms were scored for Instantaneous and Reflective scores.
Inclusion criteria: male/female 18-60 years, history of seasonal allergic rhinitis for at least two years, sensitivity to ragweed or locally prevalent allergen, immunotherapy at stable dose, AM Reflective TNSS=3 on at least 5 out of 7 consecutive days during run-in.
Exclusion criteria: subjects with asthma other than mild intermittent asthma, use of antihistamines, other than study medication; use of systemic or topical corticosteroids, use of decongestants or antihistamines within 3 days of Visit 1, nasal cromolyn within 2 weeks of Visit 1, nasal or systemic corticosteroids within 28 days of Visit 1, loratadine within 10 days of Visit 1, history of sleep abnormalities, sinusitis, use of medications causing drowsiness/interfere with sleep, subjects with a known history of alcohol or drug abuse, and other standard exclusions.
2.3 Study Sites. The Study was conducted in Newport News, Va. (20 subjects), Richmond, Va. (20 subjects), New Braunfels, Tex. (25 subjects), San Antonio, Tex. (9 subjects).

allergic rhinitis = conditions: cited from earlier work
[2] = test system: seasonal allergic rhinitis; conditions: cited from earlier work
[3] = test system: seasonal allergic rhinitis; conditions: 4 mg three times per day (12 mg daily) for seven days; cited from earlier work
[4] = Baseline (1 week placebo run-in)
[5] = Change from Baseline to End-of-Treatment
[6] = End-of-Treatment, bedtime dosing

Compound: CCOC(=O)N1CCC(=C2c3ccc(Cl)cc3CCc3cccnc32)CC1 [Loratadine]
- AM TNSS Instantaneous Score, Max [1, 4]: 7.71
- AM TNSS Instantaneous Score, Mean [1, 4]: 5.58
- AM TNSS Instantaneous Score, Median [1, 4]: 5.43
- AM TNSS Instantaneous Score, Min [1, 4]: 3.71
- AM TNSS Reflective Score, Max [1, 4]: 8.14
- AM TNSS Reflective Score, Mean [1, 4]: 5.91
- AM TNSS Reflective Score, Median [1, 4]: 5.07
- AM TNSS Reflective Score, Min [1, 4]: 5.00
- PM TNSS Instantaneous Score, Max [1, 4]: 8.83
- PM TNSS Instantaneous Score, Mean [1, 4]: 5.70
- PM TNSS Instantaneous Score, Median [1, 4]: 5.21
- PM TNSS Instantaneous Score, Min [1, 4]: 3.86
- PM TNSS Reflective Score, Max [1, 4]: 8.50
- PM TNSS Reflective Score, Mean [1, 4]: 6.10
- PM TNSS Reflective Score, Median [1, 4]: 5.59
- PM TNSS Reflective Score, Min [1, 4]: 4.57
- PM TNSS Reflective Score, Change, Max [1, 5]: 1.21
- PM TNSS Reflective Score, Change, Mean [1, 5]: −0.92
- PM TNSS Reflective Score, Change, Median [1, 5]: −0.21
- PM TNSS Reflective Score, Change, Min [1, 5]: −3.45
- AM TNSS Instantaneous Score, Change, Max ([1]; Change from Baseline to Week 2): 1.21
- AM TNSS Instantaneous Score, Change, Mean ([1]; Change from Baseline to Week 2): −0.74
- AM TNSS Instantaneous Score, Change, Median ([1]; Change from Baseline to Week 2): −0.83
- AM TNSS Instantaneous Score, Change, Min ([1]; Change from Baseline to Week 2): −2.62
- AM TNSS Reflective Score, Change, Max ([1]; Change from Baseline to Week 2): 1.29
- AM TNSS Reflective Score, Change, Mean ([1]; Change from Baseline to Week 2): −0.82
- AM TNSS Reflective Score, Change, Median ([1]; Change from Baseline to Week 2): −0.52
- AM TNSS Reflective Score, Change, Min ([1]; Change from Baseline to Week 2): −2.79
- PM TNSS Instantaneous Score, Change, Max ([1]; Change from Baseline to Week 2): 1.00
- PM TNSS Instantaneous Score, Change, Mean ([1]; Change from Baseline to Week 2): −0.81
- PM TNSS Instantaneous Score, Change, Median ([1]; Change from Baseline to Week 2): −0.21
- PM TNSS Instantaneous Score, Change, Min ([1]; Change from Baseline to Week 2): −3.45
- PM TNSS Reflective Score, Max [1, 6]: 7.71
- PM TNSS Reflective Score, Mean [1, 6]: 5.18
- PM TNSS Reflective Score, Median [1, 6]: 5.29
- PM TNSS Reflective Score, Min [1, 6]: 2.14
- AM TNSS Instantaneous Score, Max ([1]; Week 2, bedtime dosing): 7.36
- AM TNSS Instantaneous Score, Mean ([1]; Week 2, bedtime dosing): 4.83
- AM TNSS Instantaneous Score, Median ([1]; Week 2, bedtime dosing): 5.16
- AM TNSS Instantaneous Score, Min ([1]; Week 2, bedtime dosing): 2.14
- AM TNSS Reflective Score, Max ([1]; Week 2, bedtime dosing): 7.43
- AM TNSS Reflective Score, Mean ([1]; Week 2, bedtime dosing): 5.08
- AM TNSS Reflective Score, Median ([1]; Week 2, bedtime dosing): 5.13
- AM TNSS Reflective Score, Min ([1]; Week 2, bedtime dosing): 2.21
- PM TNSS Instantaneous Score, Max ([1]; Week 2, bedtime dosing): 7.21
- PM TNSS Instantaneous Score, Mean ([1]; Week 2, bedtime dosing): 4.89
- PM TNSS Instantaneous Score, Median ([1]; Week 2, bedtime dosing): 5.32
- PM TNSS Instantaneous Score, Min ([1]; Week 2, bedtime dosing): 2.15
- 24 hour efficacy (allergic rhinitis; 10 mg once a day): lack of 24 hour efficacy
- patients with significant sedation (allergic rhinitis; loratadine 40 mg once daily): 34.3%
- nocturnal symptoms ([2]; 10 mg QD for four weeks): did not show any improvement
- symptom scores ([2]; 10 mg QD, first two week period and four week study overall): statistically significant reduction

Compound: CN(C)CCC(c1ccc(Cl)cc1)c1ccccn1 (stereo not drawn) [chlorpheniramine, Chlorpheniramine maleate]
- patients reporting moderate or complete relief [3]: 60%
- patients reporting sedation [3]: 19%

— patent US20080207593A1, “Antihistamine Combination” (Collegium Pharmaceutical, Inc., priority 2007, published 2008)
